The text below walks through data of patent US10821164B2, “Peptides for inducing Chagas disease responses” (SAINT LOUIS UNIVERSITY, priority 2015, dated 2020).

One assay has as its system T. cruzi. Particulars: children aged six to 12 years with chronic disease; cited from earlier work.
Another assay concerns CD8^+ T cells. Put plainly: IFN-γ ELISPOT after vaccination of HLA-A2 transgenic mice with peptide-pulsed mature dendritic cells. Format: cell-based, HLA-A2 HHDII transgenic mice. To be noted: splenic CD8+ T cells four weeks after second peptide-pool pulsed mDC vaccination; stimulated overnight with spleen cells pulsed with individual peptide 5 μg/ml; FIG. 2A. The source says:
FIGS. 2A-C—Immunogenicity of predicted HLA-A2 restricted T. cruzi epitopes. HLA-A2 transgenic mice were vaccinated twice, two weeks apart with mature dendritic cells pulsed with functional TS (F-TS; FIG. 2A), Non-functional TS (NF-TS; FIG. 2B), or whole genome derived Non-TS peptide pools (FIG. 2C). One month later, CD8^+ T cells were isolated from control DC or peptide-pool pulsed DC vaccinated mice and stimulated overnight with APCs pulsed with individual F-TS, NF-TS, or Non-TS peptides in IFN-γ ELISPOT assays. Shown are mean±SE from representative experiments expressed as IFN-γ spot forming cells (SFC) per million CD8^+ T cells above DMSO control. Asterisks denote immunogenic peptides defined as responses greater than the mean+2 SE of all control CD8^+ T cell responses.
All animal studies were conducted in AAALAC accredited facilities and were approved by the Saint Louis University Institutional Animal Care and Use Committee. HLA-A2 HHDII transgenic mice were provided by Ted Hansen (Washington University) with permission from Marion Berard at the Institut Pasteur and were bred and housed under pathogen-free conditions throughout the inventors' studies (Pascolo et al., 1997). […]

Turning to `O=C(Cn1ccnc1[N+](=O)[O-])NCc1ccccc1` [benznidazole], the cure rate result with T. cruzi is given as “about 60%”. With EVYSLVFARL [F-TS-2], the “IFN-γ spot forming cells (SFC) per million CD8^+ T cells above DMSO control” value in the assay on CD8^+ T cells is 5,000 IFN-γ SFC/million CD8^+ T cells.
